Measured values as given in the supplement of paper PMC11208160.

Test: recombinant barcode read abundance after kanamycin selection (control-corrected) (log10(CPM+1)); higher = more efficient recombination; sequences stand for … in AGTGCAGAGAAAATCGGCCAGTTTTCTCTGCCTGCAGTCCGCATGCCGT…AGATTTATGCAGCGGACTGCCTTTCTCCCAAAGTGATAAACCGGACAGTATCATGGACCGGTTTTCCCGGTAATCCGTATTTGCAAGGTTGGTTTCACT; site = the 11-nt target
How it was run: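 Oligos holding a promoter, target, barcode and the J23119-driven first 104 bases of the bridge RNA were Gibson-cloned into a vector that supplied the other 73 bp plus a T7-inducible recombinase. This library was co-electroporated with a donor plasmid into E. coli. Two replicates went on chloramphenicol/ampicillin LB agar (control) and two on chloramphenicol/ampicillin/kanamycin with 0.1 mM IPTG. Recombination efficiency is read from averaged, control-corrected barcode counts per million at recombinant junctions, reported as log10(CPM+1).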
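Also: IS621 recombinase and bridge RNA in Escherichia coli cells.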

Compared with “GGGTCCACTTGGGTTCTAACCTGTTGCTT (site GGGTCCACTAG)”, “GGGTCCACTTGGGTTCTAACCTGTTGCTT (site GGGTCCACTAT)” is lower in “recombinant barcode read abundance (log10)” value: 1.11 for the first, 0.714 for the second.

Going from “GGGTTCCCTTGGGTTCTAACCTGTTGCCT (site GGGTTCCCTAG)” to “GGGTTCCCTTGGGTTCTAACCTGTTGCCT (site GGGTTCGCTAG)”, the “recombinant barcode read abundance (log10)” value falls from 2.11 to 0.031.

Going from “GGGTTCGCTTGGGTTCTAACCTGTTGCCT (site GGGTTCCCTAG)” to “GGGTTCGCTTGGGTTCTAACCTGTTGCCT (site GGGTTCGCTAG)”, the “recombinant barcode read abundance (log10)” value rises from 0.362 to 1.93.

“GGTAAGTCTTGGGTTCTAACCTGTTGCCT (site GGTAAATCTAG)” and “GGTAAGTCTTGGGTTCTAACCTGTTGCCT (site GGTAAGTCTAG)” are within 0.2 log units of each other in “recombinant barcode read abundance (log10)” value: 0.3 for the first, 0.298 for the second.

First: GGTACGACTTGGGTTCTAACCTGTTGCAG (site GGTACGACTCT)
Second: GGTACGACTTGGGTTCTAACCTGTTGCAG (site GGTACGCCTAT)
The “recombinant barcode read abundance (log10)” value of the first is higher: 1.04 for the first, 0.336 for the second.

“GGTACGCCTTGGGTTCTAACCTGTTGCGT (site GGTACGCCTAC)” and “GGTACGCCTTGGGTTCTAACCTGTTGCGT (site GGTACTCCTAC)” are within 0.2 log units of each other in “recombinant barcode read abundance (log10)” value: 0.248 for the first, 0.213 for the second.

“GGTACTACTTGGGTTCTAACCTGTTGCCA (site ACTACTACTTG)” and “GGTACTACTTGGGTTCTAACCTGTTGCCA (site GGTACTACTTG)” are within 0.2 log units of each other in “recombinant barcode read abundance (log10)” value: 0.0797 for the first, 0.152 for the second.

“GGTACTTCTTGGGTTCTAACCTGTTGCTT (site CACCACCCTCC)” and “GGTACTTCTTGGGTTCTAACCTGTTGCTT (site GGTACTTCTAA)” are within 0.2 log units of each other in “recombinant barcode read abundance (log10)” value: 0.157 for the first, 0.152 for the second.

“GGTAGGCCTTGGGTTCTAACCTGTTGCTT (site GGTAGATCTAA)” and “GGTAGGCCTTGGGTTCTAACCTGTTGCTT (site GGTAGGCCTAA)” are within 0.2 log units of each other in “recombinant barcode read abundance (log10)” value: 0.0963 for the first, 0.0588 for the second.

First: GGTATAGCTTGGGTTCTAACCTGTTGCCT (site GGTAAAGCTAG)
Second: GGTATAGCTTGGGTTCTAACCTGTTGCCT (site GGTATAGCTAG)
The “recombinant barcode read abundance (log10)” value of the first is lower: 0.14 for the first, 0.827 for the second.

Going from “GGTCACCCTTGGGTTCTAACCTGTTGCGG (site GGTAACCCTCC)” to “GGTCACCCTTGGGTTCTAACCTGTTGCGG (site GGTCACCCTCC)”, the “recombinant barcode read abundance (log10)” value rises from 0.0652 to 1.75.

“GGTCACCCTTGGGTTCTAACCTGTTGCGG (site GGTGACCCTCC)” and “GGTCACCCTTGGGTTCTAACCTGTTGCGG (site GGTTACCCTCC)” are within 0.2 log units of each other in “recombinant barcode read abundance (log10)” value: 0.0199 for the first, 0.16 for the second.

Going from “GGTCATCCTTGGGTTCTAACCTGTTGCCT (site GGTCATACTAG)” to “GGTCATCCTTGGGTTCTAACCTGTTGCCT (site GGTCATCCTAG)”, the “recombinant barcode read abundance (log10)” value rises from 0.127 to 1.17.

“GGTCATCCTTGGGTTCTAACCTGTTGCCT (site GGTCATGCTAG)” and “GGTCATCCTTGGGTTCTAACCTGTTGCCT (site GGTCATTCTAG)” are within 0.2 log units of each other in “recombinant barcode read abundance (log10)” value: 0.0238 for the first, 0.0693 for the second.

Compared with “GGTCCAACTTGGGTTCTAACCTGTTGCCT (site GGTCAAACTAG)”, “GGTCCAACTTGGGTTCTAACCTGTTGCCT (site GGTCCAACTAG)” is higher in “recombinant barcode read abundance (log10)” value: 0.1 for the first, 0.32 for the second.

“GGTCCAACTTGGGTTCTAACCTGTTGCCT (site GGTCGAACTAG)” and “GGTCCAACTTGGGTTCTAACCTGTTGCCT (site GGTCTAACTAG)” are within 0.2 log units of each other in “recombinant barcode read abundance (log10)” value: 0.0176 for the first, 0.159 for the second.

“GGTCCATCTTGGGTTCTAACCTGTTGCCT (site GATCCATCTAG)” and “GGTCCATCTTGGGTTCTAACCTGTTGCCT (site GCTCCATCTAG)” are within 0.2 log units of each other in “recombinant barcode read abundance (log10)” value: 0 for the first, 0.0427 for the second.

“GGTCCATCTTGGGTTCTAACCTGTTGCCT (site GGTCCATCTAG)” and “GGTCCATCTTGGGTTCTAACCTGTTGCCT (site GTTCCATCTAG)” are within 0.2 log units of each other in “recombinant barcode read abundance (log10)” value: 0.161 for the first, 0.165 for the second.

Going from “GGTCCGGCTTGGGTTCTAACCTGTTGCGG (site GATCCGTCTCC)” to “GGTCCGGCTTGGGTTCTAACCTGTTGCGG (site GGTCCGGCTCC)”, the “recombinant barcode read abundance (log10)” value rises from 0.0623 to 1.61.

Compared with “GGTCCTGCTTGGGTTCTAACCTGTTGCCT (site AGTCCTGCTAG)”, “GGTCCTGCTTGGGTTCTAACCTGTTGCCT (site CGTCCTGCTAG)” is lower in “recombinant barcode read abundance (log10)” value: 0.366 for the first, 0.0632 for the second.

First: GGTCCTGCTTGGGTTCTAACCTGTTGCCT (site GGTCCTGCTAG)
Second: GGTCCTGCTTGGGTTCTAACCTGTTGCCT (site TGTCCTGCTAG)
The “recombinant barcode read abundance (log10)” value of the first is higher: 0.976 for the first, 0.174 for the second.

“GGTCGACCTTGGGTTCTAACCTGTTGCCT (site AGTCGACCTAG)” and “GGTCGACCTTGGGTTCTAACCTGTTGCCT (site CGTCGACCTAG)” are within 0.2 log units of each other in “recombinant barcode read abundance (log10)” value: 0.0754 for the first, 0.0694 for the second.

Going from “GGTCGACCTTGGGTTCTAACCTGTTGCCT (site GGTCGACCTAG)” to “GGTCGACCTTGGGTTCTAACCTGTTGCCT (site TGTCGACCTAG)”, the “recombinant barcode read abundance (log10)” value falls from 0.898 to 0.175.

Going from “GGTCGCCCTTGGGTTCTAACCTGTTGCGT (site GGTCGCCCTAC)” to “GGTCGCCCTTGGGTTCTAACCTGTTGCGT (site TCGTAGACTTA)”, the “recombinant barcode read abundance (log10)” value falls from 1.43 to 0.0116.

“GGTCGGGCTTGGGTTCTAACCTGTTGCCT (site GGTCGAGCTAG)” and “GGTCGGGCTTGGGTTCTAACCTGTTGCCT (site GGTCGCGCTAG)” are within 0.2 log units of each other in “recombinant barcode read abundance (log10)” value: 0.132 for the first, 0.315 for the second.

Compared with “GGTCGGGCTTGGGTTCTAACCTGTTGCCT (site GGTCGGGCTAG)”, “GGTCGGGCTTGGGTTCTAACCTGTTGCCT (site GGTCGTGCTAG)” is lower in “recombinant barcode read abundance (log10)” value: 0.401 for the first, 0.0723 for the second.

First: GGTGGGTCTTGGGTTCTAACCTGTTGCGT (site GGTGGGTCTAA)
Second: GGTGGGTCTTGGGTTCTAACCTGTTGCGT (site GGTGGGTCTAC)
The “recombinant barcode read abundance (log10)” value of the first is lower: 0.97 for the first, 3.03 for the second.

Compared with “GGTGGGTCTTGGGTTCTAACCTGTTGCGT (site GGTGGGTCTAG)”, “GGTGGGTCTTGGGTTCTAACCTGTTGCGT (site GGTGGGTCTAT)” is higher in “recombinant barcode read abundance (log10)” value: 1.1 for the first, 1.93 for the second.

Going from “GGTTACACTTGGGTTCTAACCTGTTGCCT (site GGATACACTAG)” to “GGTTACACTTGGGTTCTAACCTGTTGCCT (site GGTTACACTAG)”, the “recombinant barcode read abundance (log10)” value rises from 0.0395 to 1.26.

“GGTTGTTCTTGGGTTCTAACCTGTTGCCT (site GGTTGTTCTAG)” and “GGTTGTTCTTGGGTTCTAACCTGTTGCCT (site TGTTGTTCTAG)” are within 0.2 log units of each other in “recombinant barcode read abundance (log10)” value: 0.19 for the first, 0.0976 for the second.

Compared with “GTAAACACTTGGGTTCTAACCTGTTGCAG (site GTAAACACTCT)”, “GTAAACACTTGGGTTCTAACCTGTTGCAG (site GTAGACACTCG)” is lower in “recombinant barcode read abundance (log10)” value: 0.514 for the first, 0.113 for the second.

Compared with “GTAACCTCTTGGGTTCTAACCTGTTGCTC (site GTAACCTCTGA)”, “GTAACCTCTTGGGTTCTAACCTGTTGCTC (site GTCACCTCTTA)” is lower in “recombinant barcode read abundance (log10)” value: 2.05 for the first, 0.00986 for the second.

Compared with “GTAACTACTTGGGTTCTAACCTGTTGCTC (site ACGTAACCTAG)”, “GTAACTACTTGGGTTCTAACCTGTTGCTC (site GTAACTACTGA)” is higher in “recombinant barcode read abundance (log10)” value: 0.0897 for the first, 0.475 for the second.

First: GTAAGAACTTGGGTTCTAACCTGTTGCTT (site GTAAGAACTAA)
Second: GTAAGAACTTGGGTTCTAACCTGTTGCTT (site GTAAGCACTAA)
The “recombinant barcode read abundance (log10)” value of the first is higher: 0.629 for the first, 0.0763 for the second.

“GTAAGAACTTGGGTTCTAACCTGTTGCTT (site GTAAGGACTAA)” and “GTAAGAACTTGGGTTCTAACCTGTTGCTT (site GTAAGTACTAA)” are within 0.2 log units of each other in “recombinant barcode read abundance (log10)” value: 0.0891 for the first, 0.03 for the second.

“GTAAGCACTTGGGTTCTAACCTGTTGCTT (site GTAAGAACTAA)” and “GTAAGCACTTGGGTTCTAACCTGTTGCTT (site GTAAGCACTAA)” are within 0.2 log units of each other in “recombinant barcode read abundance (log10)” value: 0.0561 for the first, 0.18 for the second.

Going from “GTAAGCACTTGGGTTCTAACCTGTTGCTT (site GTAAGGACTAA)” to “GTAAGCACTTGGGTTCTAACCTGTTGCTT (site GTAAGTACTAA)”, the “recombinant barcode read abundance (log10)” value rises from 0.0207 to 0.242.

Going from “GTAAGCTCTTGGGTTCTAACCTGTTGCCT (site ATAAGCTCTAG)” to “GTAAGCTCTTGGGTTCTAACCTGTTGCCT (site CTAAGCTCTAG)”, the “recombinant barcode read abundance (log10)” value falls from 1.34 to 0.349.

Going from “GTAAGCTCTTGGGTTCTAACCTGTTGCCT (site GTAAGCTCTAG)” to “GTAAGCTCTTGGGTTCTAACCTGTTGCCT (site TTAAGCTCTAG)”, the “recombinant barcode read abundance (log10)” value falls from 2.15 to 0.932.

Compared with “GTAAGTACTTGGGTTCTAACCTGTTGCGG (site AGAAGTACTCC)”, “GTAAGTACTTGGGTTCTAACCTGTTGCGG (site GTAAGTACTCC)” is higher in “recombinant barcode read abundance (log10)” value: 0 for the first, 2.06 for the second.

First: GTACAAGCTTGGGTTCTAACCTGTTGCCT (site AGGAGTCCTCT)
Second: GTACAAGCTTGGGTTCTAACCTGTTGCCT (site GTACAAGCTAG)
The “recombinant barcode read abundance (log10)” value of the first is lower: 0.102 for the first, 1.08 for the second.

Going from “GTACCGCCTTGGGTTCTAACCTGTTGCCT (site GTACAGCCTAG)” to “GTACCGCCTTGGGTTCTAACCTGTTGCCT (site GTACCGCCTAG)”, the “recombinant barcode read abundance (log10)” value rises from 0.483 to 1.01.

“GTACCGCCTTGGGTTCTAACCTGTTGCCT (site GTACGGCCTAG)” and “GTACCGCCTTGGGTTCTAACCTGTTGCCT (site GTACTGCCTAG)” are within 0.2 log units of each other in “recombinant barcode read abundance (log10)” value: 0.122 for the first, 0.29 for the second.
